The conditions of data set [1]: general statement on hydroxamic acids, no reference given; cited from earlier work.
The subject of data set [2] is C57BL/6 female mice. The class given is in vivo. The settings on record: PTX + ricolinostat 50 mg/kg p.o. daily. The protocol: (§1) C57BL/6 female mice (Inotiv, Udine, Italy) were used and randomized into six different groups (19 mice/group): one group was treated with PTX vehicle i.v., 1 time/week for 4 weeks and methocel 0.5% os, daily (VEH group); a second group was treated with PTX, i.v., 70 mg/kg 1 time/week for 4 weeks (PTX group); and the other four groups were treated with PTX, i.v., 70 mg/kg 1 time/week for 4 weeks and co-treated with ricolinostat, p.o., 50 mg/kg daily (PTX + ACY group), or with ITF6475, p.o., 1–6–12.5 mg/kg daily, p.o., (PTX + ITF1, PTX + ITF6, PTX + ITF12.5 groups), respectively (Figure 1). In the days of co-treatment, ricolinostat and all doses of ITF were administered 4 h before PTX. […] Mice were monitored daily to evaluate the mortality and their health, and body weight was measured twice a week during the treatment period in order to monitor general conditions and to adjust the dose.
The onset of PIPN was assessed by evaluating the sensory nerve conduction velocity (NCV) and nerve action potential amplitude (SNAP) of caudal and digital nerves using the electromyography apparatus (Matrix Light, Micromed, Treviso, Italy). […] Latencies were measured from stimulus onset, and peak-to-peak amplitudes were calculated. The NCV was calculated considering the measured distance between the recording and the stimulating negative electrode divided by the latency. […]

Data set [3] concerns C57BL/6 female mice. Put plainly: General toxicity: mortality, health, body weight, histopathology. The class given is in vivo. The following applies: for mortality: ITF6475 all doses p.o. daily. As for the experimental part:
In the days of co-treatment, ricolinostat and all doses of ITF were administered 4 h before PTX. The animals were housed in a certified and limited-access facility with controlled temperature (22 °C ± 2) and humidity (50% ± 20) and an artificial 12 h:12 h light cycle from 7 a.m. to 7 p.m. Mice were monitored daily to evaluate the mortality and their health, and body weight was measured twice a week during the treatment period in order to monitor general conditions and to adjust the dose.
(§2) At baseline and at the end of treatment, neurophysiological evaluations and dynamic tests were performed (Figure 1). Baseline neurophysiological results were used to randomize the animals into the 6 groups to ensure homogeneity. At the end of treatment, the animals were sacrificed by isoflurane overdose, caudal nerves, liver, spleen, thymus, kidneys, and sternum were used for histopathological analysis, and skin biopsies for intraepidermal nerve fiber (IENF) density analysis were collected. At the end of the study, blood was collected from the tail vein under isoflurane anesthesia into 1.5 mL Eppendorf tubes, centrifuged at 3500× g for 10 min at 4 °C, and then serum was transferred into a new tube and stored at –80 °C until examined for neurofilament light (NfL) level analysis.
Liver, spleen, thymus, kidneys, and sternum were collected and fixed in 10% buffered formalin at room temperature for 4 days. After fixation, the sternum was decalcified for 48 h at room temperature in 10% buffered EDTA. After trimming, these samples were paraffin-embedded, cut into 3 µm thick sections, stained with hematoxylin–eosin, and examined with an Olympus BX51 light microscope (Olympus, Segrate, Italy).

Data set [4] in a line: Pharmacokinetic assessment in mouse plasma (LC-MS/MS). The class given is in vivo. The following applies: for Cmax / AUC(0-t): oral; for AUC(0-t): read-out: AUC0–8h. The protocol:
For the determination of ITF6475 in mouse plasma (n. 3 mice/group), aliquots of 20 µL of samples were deproteinized by adding 300 µL of acetonitrile. After centrifugation, 100 µL of the supernatant was collected from each sample and allowed to dry in a nitrogen flow at 35 °C. The residue was then reconstituted in 150 µL of the mixture in 90% water/10% acetonitrile and 0.1% formic acid.
Quantification of ITF6475 in the samples was carried out on a calibration curve in the range 1–1000 ng/mL. Quantification of Ricolinostat in mouse plasma was carried out on aliquots of 20 µL and deproteinized with 200 µL of acetonitrile. Aliquots of 100 µL of the supernatant were collected and diluted with 100 µL of the mixture in 90% water/10% acetonitrile and 0.1% formic acid. The calibration curve range was 1–1000 ng/mL.
Samples were analyzed in an LC-MS/MS system, constituted by a Prominence Shimadzu HPLC (Shimadzu Italia S.r.l., Milano, Italy) and an API6500+ triple quadrupole mass spectrometer equipped with TurboIonSpray (Sciex, Milano, Italy). Analyses were carried out in a positive mode. The system was managed through the software Analyst 1.7.2 (Sciex, Milano, Italy).

The subject of data set [5] is C57BL/6 female mice. The class given is in vivo. The following applies: end of treatment, PTX + ACY 50 mg/kg p.o. daily, p < 0.01. The protocol:
as §1
To evaluate the IENF density, glabrous skin punches from the plantar hind paw were fixed in paraformaldehyde-lysine and periodate sodium (PLP) 2%, cryoprotected and serially cut in 20 μm thick sections. […] The total number of PGP 9.5-positive IENF crossing the dermal-epidermal junction was counted by a blinded examiner (ACh) under a light microscope at 40× magnification (Nexcope Ne920 AUTO light microscope, TiEsseLab Srl, Milano, Italy). […]

Data set [6] deals with neurofilament light (NfL). Put plainly: Serum neurofilament light (NfL) analysis in PIPN model. The class given is in vivo, mouse. The following applies: end of treatment. The protocol:
as §2
Serum NfL concentrations were measured using an automated chemiluminescent enzyme immunoassay instrument LUMIPULSE G600 (LUMIPULSE G NfL Blood kit, Fujirebio, Pomezia, Italy). The concentration was expressed in pg/mL [27, 30, 31].

The subject of data set [7] is C57BL/6 female mice. Put plainly: Neuropathology, morphological analysis of caudal nerves. The class given is in vivo, mouse. The following applies: end of treatment, PTX alone or in combination. The protocol:
Caudal nerves were isolated for morphological analysis and processed as previously described, separating the proximal and the distal portions to obtain a better evaluation of the distal-to-proximal extension of the damage. Briefly, the caudal and sciatic nerves were immersion-fixed in 3% glutaraldehyde and were subsequently osmicated, dehydrated, and embedded in epoxy resin. Semithin sections of 1.5 μm thickness were prepared from at least three tissue blocks for each animal, stained with toluidine blue, and examined with a Nexcope Ne920 AUTO light microscope (TiEsseLab Srl, Milano, Italy).

[8] abbreviates: 4 weeks, PTX 70 mg/kg i.v. 1 time/week, ricolinostat 50 mg/kg p.o. daily.

Where two headings read alike, the source gives them in different places.

Regarding `O=C(CCCCCCNC(=O)c1cnc(N(c2ccccc2)c2ccccc2)nc1)NO` [ricolinostat], in data set [1], the “protein binding (in words)” value was “not heavily protein-bound”. Also, the “protection of PTX-induced reduction in digital nerve SNAP” value in the data set with C57BL/6 female mice [2] was “significant protection of reduction in digital nerve SNAP”. Further, the tolerability result in the data set with C57BL/6 female mice [3] (4 weeks, PTX 70 mg/kg i.v. 1 time/week, ricolinostat 50 mg/kg p.o. daily, ITF6475 1–6–12.5 mg/kg p.o. daily (all doses)) is on record as “well tolerated”. In addition, in the data set on C57BL/6 female mice [3] (setting [8]), the mortality result is recorded as “no mortality was observed”. For the same compound, in the data set on C57BL/6 female mice [3] (PTX alone or in combination with ricolinostat 50 mg/kg or all doses of ITF), the “body weight vs. VEH” value was “statistically significant increase in body weight”. Also, in the data set on C57BL/6 female mice [3] (co-treated mice, ricolinostat 50 mg/kg or ITF6475 1–12.5 mg/kg p.o. daily with PTX), the relevant toxicity result is reported as “no evidence of relevant toxicity”. For the same compound, the “histopathology of thymus and spleen” value with C57BL/6 female mice [3] (end of treatment, PTX alone or in combination with ricolinostat or ITF6475) is “thymic and splenic hypoplasia associated with reactive extramedullary ectopic hematopoiesis”. In addition, the “AUC increase with dosage” value in data set [4] is “increase non-linearly at doses above 25 mg/kg”. For the same compound, the Cmax (as a rule, the highest concentration seen after dosing) in data set [4] (25 mg/kg, dose 25 mpk) turned out to be 33.7 ng/mL; in data set [4] (100 mg/kg, dose 100 mpk) it was 29.8 ng/mL; in data set [4] (200 mg/kg, dose 200 mpk) it was 33.9 ng/mL. For the same compound, the AUC(0-t) stood at 124 ng·h/mL in data set [4] (25 mg/kg, dose 25 mpk); 171 ng·h/mL in data set [4] (100 mg/kg, dose 100 mpk); 234 ng·h/mL in data set [4] (200 mg/kg, dose 200 mpk). Besides, the “IENF density vs. VEH” value in the data set with C57BL/6 female mice [5] is on record as “statistically significant reduction”. For the same compound, the “serum NfL vs. VEH” value in data set [6] (PTX + ACY 50 mg/kg p.o. daily, p < 0.05) was “statistically significant difference”.

Consider `CC(=O)O[C@H]1C(=O)[C@@]2(C)[C@H]([C@H](OC(=O)c3ccccc3)[C@]3(O)C[C@H](OC(=O)[C@H](O)[C@@H](NC(=O)c4ccccc4)c4ccccc4)C(C)=C1C3(C)C)[C@]1(OC(C)=O)CO[C@@H]1C[C@@H]2O` [PTX, paclitaxel], for which the mortality entry in the data set with C57BL/6 female mice [3] (setting [8]) is “no mortality was observed”. Moreover, the “mice with mild, diffuse hepatic lipidosis” value with C57BL/6 female mice [3] (female, C57BL/6, mouse, in vivo, 4 weeks) is “approximately 25%”. In addition, in the data set with C57BL/6 female mice [7], the “morphology of distal caudal nerves” value is “even more severe axonopathy” and the “morphology of proximal caudal nerves” value was “severe axonopathy with numerous degenerated fibers”. Further, in data set [6] (PTX 70 mg/kg i.v. alone, p < 0.001), the “serum NfL vs. VEH” value is reported as “statistically significant difference”.
